Test results from ChEMBL document CHEMBL1914347, “Palmerolide macrolides from the Antarctic tunicate Synoicum adareanum” (Bioorg Med Chem, 2011).
pIC50: −log10 of the molar value.

Legend:
[1] = Inhibition of bovine brain Vo domain of V-ATPase activity assessed as ATP-mediated proton translocation by spectrophotometric analysis; design: species or system Bos taurus
[2] = test system: UACC-62; test: Cytotoxicity against human UACC62 cells after 48 hrs by SRB assay; assay type: functional, cell-based; conditions: UACC-62, 48 h
[3] = Ratio of IC50 for bovine brain Vo domain of V-ATPase activity to IC50 for human UACC62 cells; design: species or system UACC-62
[4] = Cytotoxicity against human NCI60 cells; assay type: functional; conditions: read-out: LC50 (the source's name)

Compound | pIC50 [1] | pIC50 [2] | Ratio IC50 [3] | CC50 [4]
C/C(C=O)=C\[C@@H](C)[C@H]1C/C(C)=C/C=C/CC[C@H](OC(N)=O)[C@@H](O)/C=C/[C@@H](O)CCC/C=C/C(=O)O1 [PALMEROLIDE E] | < 2.00 | 2.30 | >2 | 
C=C(C)C/C(C)=C\C(=O)N/C=C/C(C)=C/[C@@H](C)[C@H]1C/C(C)=C/C=C/CC[C@H](OC(N)=O)[C@@H](O)/C=C/[C@@H](O)CCC/C=C/C(=O)O1 [PALMEROLIDE D] | 7.60 | 8.70 | 12.5 | 
CC(C)=CC(=O)N/C=C/C(C)=C/[C@@H](C)[C@H]1C/C(C)=C/C=C/CC[C@H](OC(N)=O)[C@@H](O)/C=C/[C@@H](O)CCC/C=C/C(=O)O1 [PALMEROLIDE A] | 8.70 | 7.62 | 0.083 | 0.018 µM
C=C(C)CC(=O)N/C=C/C(C)=C/[C@@H](C)[C@H]1C/C(C)=C/C=C/CC[C@H](OC(N)=O)[C@@H](O)/C=C/[C@@H](O)CCC/C=C/C(=O)O1 [PALMEROLIDE F] | 7.20 | 6.12 | 0.083 | 
CC(C)=CC(=O)N/C=C/C(C)=C\[C@@H](C)[C@H]1C/C(C)=C/C=C/CC[C@H](OC(N)=O)[C@@H](O)/C=C/[C@@H](O)CCC/C=C/C(=O)O1 [PALMEROLIDE G] | 8.15 | 5.92 | 0.006 | 
